Measured values reported in patent US6608086B2, “Dihydropyridines and new uses thereof” (Synaptic Pharmaceutical Corporation, priority 1993, dated 2003).
Like-named read-outs stand apart in the source and are kept apart here.

Key:
[1] = molecular target: T1, α1C Human Adrenergic Receptor (Homo sapiens, UniProt P35348); assay: Radioligand binding, [3H]prazosin, cloned human α1C adrenergic receptor
T1 construct: The entire coding region of α1C (1401 bp); expressed in transfected cells
T1 sequence (P35348 1-466): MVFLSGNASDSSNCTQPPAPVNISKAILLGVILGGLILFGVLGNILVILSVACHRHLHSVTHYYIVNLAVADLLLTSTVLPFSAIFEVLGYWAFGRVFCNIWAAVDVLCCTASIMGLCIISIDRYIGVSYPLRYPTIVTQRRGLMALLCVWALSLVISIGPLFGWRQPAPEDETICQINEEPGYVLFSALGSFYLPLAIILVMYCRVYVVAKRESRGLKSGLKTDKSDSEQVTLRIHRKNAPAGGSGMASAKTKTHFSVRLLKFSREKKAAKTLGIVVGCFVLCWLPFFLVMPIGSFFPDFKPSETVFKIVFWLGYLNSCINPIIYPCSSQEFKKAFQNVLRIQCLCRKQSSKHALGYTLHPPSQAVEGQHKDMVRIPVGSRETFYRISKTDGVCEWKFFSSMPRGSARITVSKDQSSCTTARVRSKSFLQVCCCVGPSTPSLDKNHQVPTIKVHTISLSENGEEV
Summary of the method: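 Read-out is filter-retained [3H]prazosin (0.5 nM) bound to membranes of LM(tk−) cells stably carrying the human α1C receptor. Incubation ran 20 min at 37° C. at pH 7.5, with 10 μM phentolamine marking nonspecific binding.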

[2] = molecular target: T2, α1A Human Adrenergic Receptor (Homo sapiens, UniProt P25100); assay: Radioligand binding, [3H]prazosin, cloned human α1A adrenergic receptor; settings: pKi alpha-1 1a
T2 construct: The entire coding region of α1A (1719 bp); expressed in transfected cells
T2 sequence (P25100 1-572): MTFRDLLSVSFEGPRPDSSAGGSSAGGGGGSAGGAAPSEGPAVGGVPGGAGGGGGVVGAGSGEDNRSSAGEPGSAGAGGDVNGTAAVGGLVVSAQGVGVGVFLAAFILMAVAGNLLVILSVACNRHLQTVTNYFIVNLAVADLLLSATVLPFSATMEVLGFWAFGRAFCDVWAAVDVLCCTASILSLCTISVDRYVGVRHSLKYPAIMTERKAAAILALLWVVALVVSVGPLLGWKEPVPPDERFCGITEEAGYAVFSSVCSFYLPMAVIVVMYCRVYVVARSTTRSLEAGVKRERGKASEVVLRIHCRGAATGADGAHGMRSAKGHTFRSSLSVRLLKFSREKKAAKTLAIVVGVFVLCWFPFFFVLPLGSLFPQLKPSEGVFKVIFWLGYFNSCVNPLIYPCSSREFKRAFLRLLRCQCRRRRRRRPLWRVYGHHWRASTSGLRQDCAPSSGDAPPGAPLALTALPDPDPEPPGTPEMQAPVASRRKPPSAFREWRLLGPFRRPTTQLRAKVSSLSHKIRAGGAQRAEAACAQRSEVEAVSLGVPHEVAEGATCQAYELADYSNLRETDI
Summary of the method: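 Filter-bound radioactivity measured [3H]prazosin (0.5 nM) binding to membranes of LM(tk−) cells expressing the human α1A receptor after 20 min at 37° C. Phentolamine at 10 μM set nonspecific binding.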

[3] = molecular target: T3, α1B Human Adrenergic Receptor (Homo sapiens, UniProt P35368); assay: Radioligand binding, [3H]prazosin, cloned human α1B adrenergic receptor
T3 construct: The entire coding region of α1B (1563 bp); expressed in transfected cells
T3 sequence (P35368 1-520): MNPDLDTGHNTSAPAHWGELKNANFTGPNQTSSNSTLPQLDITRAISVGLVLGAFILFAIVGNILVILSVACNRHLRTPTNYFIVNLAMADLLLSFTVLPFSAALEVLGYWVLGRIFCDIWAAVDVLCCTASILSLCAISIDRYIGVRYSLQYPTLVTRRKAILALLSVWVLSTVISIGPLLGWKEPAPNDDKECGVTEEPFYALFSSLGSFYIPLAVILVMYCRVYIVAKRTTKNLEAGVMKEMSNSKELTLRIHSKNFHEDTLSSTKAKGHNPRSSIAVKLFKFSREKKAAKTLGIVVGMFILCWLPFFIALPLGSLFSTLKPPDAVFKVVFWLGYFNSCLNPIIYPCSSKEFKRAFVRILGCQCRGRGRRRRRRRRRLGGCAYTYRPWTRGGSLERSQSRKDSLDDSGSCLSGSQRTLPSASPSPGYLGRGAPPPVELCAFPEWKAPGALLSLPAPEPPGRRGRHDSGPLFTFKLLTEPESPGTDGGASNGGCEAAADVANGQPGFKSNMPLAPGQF
Summary of the method: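 [3H]prazosin (0.5 nM) binding was run for 20 min at 37° C in pH 7.5 Tris/MgCl2/ascorbate buffer on membranes of LM(tk−) cells stably expressing the cloned receptor. Filtration through GF/B ended the reaction; 10 μM phentolamine gave nonspecific binding.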

[4] = cloned human receptor in LM(tk-) cell membranes, SEM and n in lines below, read-out: pKi alpha-1 1c (converted)
[5] = cloned human receptor in LM(tk-) cell membranes, SEM and n in lines below, read-out: pKi alpha-1 1b (converted)
[6] = pKi alpha-1 1c, cloned human receptor in LM(tk-) cell membranes, SEM and n in lines below
[7] = [3H]prazosin, cloned human receptor in LM(tk-) cell membranes, SEM and n in lines below
[8] = pKi alpha-1 1b, cloned human receptor in LM(tk-) cell membranes, SEM and n in lines below
[9] = [3H]prazosin, cloned human α1A receptor, LM(tk−) cell membranes
[10] = pKi alpha-1 1b, cloned human α1B receptor, LM(tk−) cell membranes

Molecule `COC(=O)C1=C(C)NC(C)=C(C(=O)NCCCN2CCC(c3ccccc3)(c3ccccc3)CC2)C1c1ccc(C(F)(F)F)cc1` (centres unmarked) [Example 1] has a Ki [1, 4] of 0.0302 µM, a Ki [2] of 2.57 µM and a Ki [3, 5] of 0.407 µM. For the same molecule, the melting point was 228 to 231 °C.
In the case of `COC(=O)C1=C(C)NC(C)=C(C(=O)NCCCN2CCC(c3ccccc3)(c3ccccc3)CC2)C1c1ccncc1` (centres unmarked) [Example 5, 1,4-Dihydro-5-methoxycarbonyl-2,6-dimethyl-3-(N-(3-(4,4-diphenylpiperidin-1-yl)propyl)carboxamido)-4-(4-pyridyl)pyridine], the Ki [1, 4] is reported as 0.0112 µM, the Ki [2] is reported as 1.82 µM and the Ki [3, 5] is reported as 0.832 µM. The melting point was 224 to 226 °C (dec.).
Work on `COC(=O)C1=C(C)NC(C)=C(C(=O)NCCCN2CCC(c3ccccc3)(c3ccccc3)CC2)C1C1CCCCC1` (centres unmarked) [Example 6] yielded a Ki [1, 4] of 0.148 µM, a Ki [2] of 1.12 µM and a Ki [3, 5] of 0.204 µM. It also gave a melting point of 171 to 174 °C.
For `COC(=O)C1=C(C)NC(C)=C(C(=O)NCCCN2CCC(c3ccccc3)(c3ccccc3)CC2)C1c1ccc(-c2ccccc2)cc1` (centres unmarked) [Example 7], the Ki [1, 4] was 0.617 µM, the Ki [2] was 1.17 µM and the Ki [3, 5] was 0.288 µM. For the same molecule, the melting point was 136 to 139 °C.
Work on `COC(=O)C1=C(C)NC(C)=C(C(=O)NCCCN2CCC(c3ccccc3)(c3ccccc3)CC2)C1Cc1ccccc1` (centres unmarked) [Example 8, 4-Benzyl-1,4-dihydro-3-methoxycarbonyl-2,6-dimethyl-5-(N-(3-(4,4-diphenylpiperidin-1-yl)propyl)carboxamido)pyridine] yielded a Ki [1, 6] of 0.0759 µM, a Ki [2, 7] of 0.38 µM and a Ki [3, 8] of 0.186 µM. It also gave a melting point of 175 to 177 °C.
With `COC(=O)C1=C(C)NC(C)=C(C(=O)NCCCN2CCC(c3ccccc3)(c3ccccc3)CC2)C1c1cc[n+]([O-])cc1` (centres unmarked) [Example 9, 1,4-Dihydro-3-methoxycarbonyl-2,6-Dimethyl-4-(1-oxido-4-pyridyl)-5-(N-(3-(4,4-diphenylpiperidin-1-yl)propyl)carboxamido)pyridine] the Ki [1, 6] was 0.024 µM, the Ki [2, 7] was 1.7 µM and the Ki [3, 8] was 0.339 µM. The melting point was 206 to 209 °C (dec.).
`COC(=O)C1=C(C)NC(C)=C(C(=O)NCCCN2CCC(c3ccccc3)(c3ccccc3)CC2)C1c1ccc(Cl)cc1` (centres unmarked) [Example 10, 4-(4-Chlorophenyl)-1,4-dihydro-5-methoxycarbonyl-2,6-Dimethyl-5-(N-(3-(4,4-diphenylpiperidin-1-yl)propyl)carboxamido)pyridine] gave a Ki [1, 4] of 0.00178 µM, a Ki [2] of 0.447 µM and a Ki [3, 5] of 0.123 µM. For the same molecule, the melting point was 240 to 242 °C.
`COC(=O)C1=C(C)NC(C)=C(C(=O)NCCCN2CCC(c3ccccc3)(c3ccccc3)CC2)C1c1ccc2c(c1)OCO2` (centres unmarked) [Example 11, 1,4-Dihydro-3-methoxycarbonyl-2,6-dimethyl-4-(3,4-methylenedioxyphenyl)-5-(N-(3-(4,4-diphenylpiperidin-1-yl)propyl)carboxamido)pyridine] showed a Ki [1, 4] of 0.00112 µM, a Ki [2] of 0.302 µM and a Ki [3, 5] of 0.229 µM. It also gave a melting point of 197 to 200 °C.
Work on `COC(=O)C1=C(C)NC(C)=C(C(=O)NCCCN2CCC(c3ccccc3)(c3ccccc3)CC2)C1c1ccc(C#N)cc1` (centres unmarked) [Example 12, 4-(4-Cyanophenyl)-1,4-dihydro-3-methoxycarbonyl-2,6-dimethyl-5-(N-(3-(4,4-diphenylpiperidin-1-yl)propyl)carboxamido)pyridine] yielded a Ki [1, 4] of 0.00182 µM, a Ki [2] of 0.38 µM and a Ki [3, 5] of 0.151 µM. For the same molecule, the melting point was 115 to 118 °C.
Molecule `COC(=O)C1=C(C)NC(C)=C(C(=O)NCCCN2CCC(c3ccccc3)(c3ccccc3)CC2)C1c1ccc(I)cc1` (centres unmarked) [Example 13, 1,4-Dihydro-4-(4-iodophenyl)-3-methoxycarbonyl-2,6-dimethyl-5-(N-(3-(4,4-diphenylpiperidin-1-yl)propyl)carboxamido)pyridine] has a Ki [1, 4] of 0.00724 µM, a Ki [2] of 0.389 µM and a Ki [3, 5] of 0.166 µM. The melting point was 228 to 230 °C (dec.).
In the case of `COC(=O)C1=C(C)NC(C)=C(C(=O)NCCCN2CCC(c3ccccc3)(c3ccccc3)CC2)C1c1cccnc1` (centres unmarked) [Example 14, 1,4-Dihydro-3-methoxycarbonyl-2.6-dimethyl-5-(N-(3-(4,4-diphenylpiperidin-1-yl)propyl)carboxamido)-4-(3-pyridyl)pyridine], the Ki [1, 6] is reported as 0.0407 µM, the Ki [2, 7] is reported as 4.07 µM and the Ki [3, 8] is reported as 2.63 µM. The melting point was 244 to 247 °C (dec.).
In the case of `COC(=O)C1=C(C)NC(C)=C(C(=O)NCCCN2CCC(c3ccccc3)(c3ccccc3)CC2)C1c1ccc(Br)cc1` (centres unmarked) [Example 15, 4-(4-Bromophenyl)-1,4-dihydro-3-methoxycarbonyl-2,6-dimethyl-5-(N-(3-(4,4-diphenylpiperidin-1-yl)propyl)carboxamido)pyridine], the Ki [1, 4] is reported as 0.00631 µM, the Ki [2] is reported as 0.417 µM and the Ki [3, 5] is reported as 0.166 µM. The melting point was 244 to 247 °C (dec.).
Work on `COC(=O)C1=C(C)NC(C)=C(C(=O)NCCCN2CCC(c3ccccc3)(c3ccccc3)CC2)C1c1ccc(Cl)c([N+](=O)[O-])c1` (centres unmarked) [Example 16, 4-(4-Chloro-3-nitrophenyl)-1,4-dihydro-3-methoxycarbonyl-2,6-dimethyl-5-(N-(3-(4,4-diphenylpiperidin-1-yl)propyl)carboxamido)pyridine] yielded a Ki [1, 4] of 0.00589 µM, a Ki [2] of 0.427 µM and a Ki [3, 5] of 0.174 µM. The melting point was 178 to 181 °C.
For `COC(=O)C1=C(C)NC(C)=C(C(=O)NCCCN2CCC(c3ccccc3)(c3ccccc3)CC2)C1c1ccc(C(C)C)cc1` (centres unmarked) [Example 18, 1,4-Dihydro-4-(4-isopropylphenyl)-3-methoxycarbonyl-2,6-dimethyl-5-(N-(3-(4,4-diphenylpiperidin-1-yl)propyl)carboxamido)pyridine], the Ki [1, 4] was 0.0692 µM, the Ki [2] was 0.891 µM and the Ki [3, 5] was 0.174 µM. The melting point was 163 to 163.5 °C.
Molecule `CCC1=C(C(=O)NCCCN2CCC(c3ccccc3)(c3ccccc3)CC2)C(c2ccc([N+](=O)[O-])cc2)C(C(=O)NC)=C(COCCN=[N+]=[N-])N1` (centres unmarked) [Example 151, 2-((2-Azidoethyl)oxy)methyl-6-ethyl-1,4-dihydro-3-(N-methyl)carboxamido-4-(4-nitro)phenyl-5-(N-(3-(4,4-diphenylpiperidin-1-yl)propyl))carboxamidopyridine] has a Ki ([1]; pKi alpha-1 1c, cloned human α1C receptor, LM(tk−) cell membranes) of 0.0123 µM, a Ki [2, 9] of 0.631 µM and a Ki [3, 10] of 0.355 µM.
`CC1=C(C(=O)NCCCN2CCC(c3ccccc3)(c3ccccc3)CC2)C(c2ccc([N+](=O)[O-])cc2)C(C(=O)OCCC#N)=C(C)N1` (centres unmarked) [Example 160] gave a Ki ([1]; cloned human α1C receptor, LM(tk−) cell membranes, read-out: pKi alpha-1 1c (converted)) of 0.00794 µM, a Ki [2, 9] of 0.251 µM and a Ki [3, 10] of 0.138 µM.
